In US8258311B2, “Human protein tyrosine phosphatase inhibitors and methods of use” (Aerpio Therapeutics Inc., priority 2006, dated 2012):

Assays:
[1] = molecular target: T1, PTP1B (Homo sapiens, UniProt P18031); test: PTP1B inhibition (IC50); type: biochemical
T1 sequence (P18031 1-435): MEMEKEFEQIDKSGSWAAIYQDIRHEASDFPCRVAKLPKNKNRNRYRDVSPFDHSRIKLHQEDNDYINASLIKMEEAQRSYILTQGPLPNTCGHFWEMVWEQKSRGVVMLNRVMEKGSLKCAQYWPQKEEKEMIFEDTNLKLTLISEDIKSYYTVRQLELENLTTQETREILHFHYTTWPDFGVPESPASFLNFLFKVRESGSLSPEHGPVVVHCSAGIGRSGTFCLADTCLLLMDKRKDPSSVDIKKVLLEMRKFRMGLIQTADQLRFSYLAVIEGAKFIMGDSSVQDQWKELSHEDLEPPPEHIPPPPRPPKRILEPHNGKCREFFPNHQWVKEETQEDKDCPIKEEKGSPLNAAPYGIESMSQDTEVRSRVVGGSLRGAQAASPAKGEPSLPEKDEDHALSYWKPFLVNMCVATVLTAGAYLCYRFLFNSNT

[2] = molecular target: HPTPβ (Homo sapiens, UniProt P23467); test: HPTPβ inhibition (IC50); type: biochemical
Chain of HPTPβ (P23467 23-1997): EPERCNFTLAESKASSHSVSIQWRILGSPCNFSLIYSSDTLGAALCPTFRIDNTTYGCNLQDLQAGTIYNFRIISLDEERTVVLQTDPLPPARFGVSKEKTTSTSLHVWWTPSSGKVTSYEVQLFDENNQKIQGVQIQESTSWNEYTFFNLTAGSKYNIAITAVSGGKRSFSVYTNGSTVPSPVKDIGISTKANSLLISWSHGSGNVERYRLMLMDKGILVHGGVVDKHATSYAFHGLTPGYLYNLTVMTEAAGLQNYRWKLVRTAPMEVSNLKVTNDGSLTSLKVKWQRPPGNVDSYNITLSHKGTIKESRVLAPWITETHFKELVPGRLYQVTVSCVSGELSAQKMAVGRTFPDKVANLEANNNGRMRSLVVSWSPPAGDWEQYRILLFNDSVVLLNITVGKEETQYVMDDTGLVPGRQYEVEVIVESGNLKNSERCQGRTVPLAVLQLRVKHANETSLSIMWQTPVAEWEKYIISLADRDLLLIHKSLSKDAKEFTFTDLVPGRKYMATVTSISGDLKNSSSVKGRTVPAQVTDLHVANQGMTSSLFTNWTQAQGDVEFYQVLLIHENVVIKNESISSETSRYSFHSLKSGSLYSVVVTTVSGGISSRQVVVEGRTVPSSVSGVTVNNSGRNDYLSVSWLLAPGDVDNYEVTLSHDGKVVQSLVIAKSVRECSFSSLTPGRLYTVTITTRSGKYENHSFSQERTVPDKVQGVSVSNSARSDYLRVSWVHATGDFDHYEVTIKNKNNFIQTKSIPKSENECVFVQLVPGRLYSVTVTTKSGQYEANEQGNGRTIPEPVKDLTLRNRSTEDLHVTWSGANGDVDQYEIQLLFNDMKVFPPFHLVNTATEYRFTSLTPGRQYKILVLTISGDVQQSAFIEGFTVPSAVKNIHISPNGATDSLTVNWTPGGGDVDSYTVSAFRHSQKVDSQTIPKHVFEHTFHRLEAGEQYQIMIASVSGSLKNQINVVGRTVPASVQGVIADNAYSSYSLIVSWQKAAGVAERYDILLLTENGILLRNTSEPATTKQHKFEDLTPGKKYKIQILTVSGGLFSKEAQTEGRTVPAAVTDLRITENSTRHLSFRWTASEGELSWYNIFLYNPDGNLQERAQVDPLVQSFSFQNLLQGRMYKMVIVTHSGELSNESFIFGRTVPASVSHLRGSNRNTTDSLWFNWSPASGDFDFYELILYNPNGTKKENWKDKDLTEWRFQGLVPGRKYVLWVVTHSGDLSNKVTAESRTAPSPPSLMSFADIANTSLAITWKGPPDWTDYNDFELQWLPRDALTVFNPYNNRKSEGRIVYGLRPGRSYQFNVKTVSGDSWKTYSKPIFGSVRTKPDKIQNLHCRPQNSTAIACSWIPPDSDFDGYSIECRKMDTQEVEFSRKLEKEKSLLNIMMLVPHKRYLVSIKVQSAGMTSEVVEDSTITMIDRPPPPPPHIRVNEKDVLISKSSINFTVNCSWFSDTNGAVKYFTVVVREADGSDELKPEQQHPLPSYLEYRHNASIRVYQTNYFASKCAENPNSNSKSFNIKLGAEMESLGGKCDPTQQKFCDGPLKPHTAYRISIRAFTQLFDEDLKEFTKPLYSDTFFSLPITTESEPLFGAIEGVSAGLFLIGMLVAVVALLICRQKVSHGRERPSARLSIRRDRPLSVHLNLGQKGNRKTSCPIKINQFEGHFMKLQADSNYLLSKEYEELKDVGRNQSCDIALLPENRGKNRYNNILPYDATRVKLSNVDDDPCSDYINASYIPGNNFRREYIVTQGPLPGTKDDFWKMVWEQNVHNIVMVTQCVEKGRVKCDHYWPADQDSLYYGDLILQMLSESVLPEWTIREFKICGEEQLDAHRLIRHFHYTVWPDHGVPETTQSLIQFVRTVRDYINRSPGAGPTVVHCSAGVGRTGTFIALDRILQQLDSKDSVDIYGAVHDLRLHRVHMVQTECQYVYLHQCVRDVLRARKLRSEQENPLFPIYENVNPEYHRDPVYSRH

Row | IC50 [1] | IC50 [2] | Compound
1 | 1630 nM | 0.3 nM | COC(=O)N[C@@H](Cc1ccccc1)C(=O)N[C@@H](Cc1ccc(NS(=O)(=O)O)cc1)c1nc(CC(F)(F)F)cs1 [4-{(S)-2-[(S)-2-(Methoxycarbonylamino)-3-phenylpropanamido]-2-[4-(2,2,2-trifluoroethyl)thiazol-2-yl]ethyl}phenylsulfamic acid]
2 | 810 nM | 0.3 nM | COC(=O)N[C@@H](Cc1ccccc1)C(=O)N[C@@H](Cc1ccc(NS(=O)(=O)O)cc1)c1ncc(-c2ccccc2)s1 [4-{(S)-2-[(S)-2-(Methoxycarbonylamino)-3-phenylpropanamido]-2-(5-phenylthiazol-2-yl)ethyl}phenylsulfamic acid]
3 | 680 nM | 0.14 nM | CCOC(=O)N[C@@H](Cc1ccccc1)C(=O)N[C@@H](Cc1ccc(NS(=O)(=O)O)cc1)c1nc(CC)cs1 [4-{(S)-2-[(S)-2-(Ethoxycarbonylamino)-3-phenylpropanamido]-2-(4-ethylthiazol-2-yl)ethyl}phenylsulfamic acid]
4 | 440 nM | 0.09 nM | COC(=O)N[C@@H](Cc1ccccc1)C(=O)N[C@@H](Cc1ccc(NS(=O)(=O)O)cc1)c1nc(-c2ccsc2)cs1 [4-{(S)-2-[(S)-2-(Methoxycarbonylamino)-3-phenylpropanamido]-2-[4-(thiophen-3-yl)thiazol-2-yl]ethyl}phenylsulfamic acid]
5 | 722 nM | 0.157 nM | CCc1csc([C@H](Cc2ccc(NS(=O)(=O)O)cc2)NC(=O)Cc2ccccc2)n1 [(S)-{4-[2-(4-Ethylthiazol-2-yl)-2-(phenylacetylamino)ethyl]-phenyl}sulfamic acid]
6 | 50000 nM | 266 nM | CC(C)(C)C(=O)N[C@@H](Cc1ccc(NS(=O)(=O)O)cc1)c1nc(CO)cs1 [(S)-4-{2-[4-(hydroxymethyl)thiazol-2-yl]-2-pivalamidoethyl}phenyl-sulfamic acid]
7 | 70 nM | 0.3 nM | CCc1csc([C@H](Cc2ccc(NS(=O)(=O)O)cc2)NC(=O)[C@H](CC(C)C)NC(=O)OC)n1 [4-{(S)-2-(4-Ethylthiazol-2-yl)-2-[(S)-2-(methoxycarbonylamino)-4-methylpentanamido]ethyl}phenylsulfamic acid]
8 | 480 nM | 1 nM | COC(=O)N[C@@H](Cc1ccccc1)C(=O)N[C@@H](Cc1ccc(NS(=O)(=O)O)cc1)c1nc(C)cs1 [4-{(S)-2-[(S)-2-(Methoxycarbonylamino)-3-phenylpropanamido]-2-(4-methylthiazol-2-yl)ethyl}phenylsulfamic acid]
9 | 640 nM | 1 nM | COCc1csc([C@H](Cc2ccc(NS(=O)(=O)O)cc2)NC(=O)[C@H](Cc2ccccc2)NC(=O)OC)n1 [4-{(S)-2-[(S)-2-(Methoxycarbonylamino)-3-phenylpropanamido]-2-[4-(methoxymethyl)thiazol-2-yl]ethyl}phenylsulfamic acid]
10 | 142000 nM | 85 nM | CCc1csc([C@H](Cc2ccc(NS(=O)(=O)O)cc2)NC(=O)C(C)(C)C)n1 [(S)-4-(2-(4-Ethylthiazol-2-yl)-2-pivalamidoethyl)phenyl-sulfamic acid]
11 | 1210 nM | 2 nM | COC(=O)N[C@@H](Cc1ccccc1)C(=O)N[C@@H](Cc1ccc(NS(=O)(=O)O)cc1)c1csc(CS(=O)(=O)C(C)(C)C)n1 [4-{(S)-2-[2-(tert-Butylsulfonylmethyl)thiazol-4-yl]-2-[(S)-2-(methoxycarbonylamino)-3-phenylpropanamido]ethyl}phenylsulfamic acid]
12 | 1160 nM | 0.24 nM | CC(=O)N[C@@H](Cc1ccccc1)C(=O)N[C@@H](Cc1ccc(NS(=O)(=O)O)cc1)c1nc(-c2ccsc2)cs1 [4-{(S)-2-((S)-2-Acetamido-3-phenylpropanamido)-2-[4-(thiophen-3-yl)thiazol-2-yl]ethyl}phenylsulfamic acid]
13 | 295 nM | 3 nM | COC(=O)N[C@@H](Cc1ccccc1)C(=O)N[C@@H](Cc1ccc(NS(=O)(=O)O)cc1)c1csc(-c2cnccn2)n1 [4-{(S)-2-[(S)-2-(Methoxycarbonylamino)-3-phenylpropanamido]-2-[2-(pyrazin-2-yl)thiazol-4-yl]ethyl}phenylsulfamic acid]

Second part, the compound before the results:

Row | Compound | IC50 [1] | IC50 [2]
14 | CC(C)(C)C(=O)N[C@@H](Cc1ccc(NS(=O)(=O)O)cc1)c1nc(-c2ccc3c(c2)OCCO3)cs1 [4-((S)-2-(4-(2,3-Dihydrobenzo[b][1,4]dioxin-6-yl)thiazol-2-yl)-2-pivalamidoethyl)phenylsulfamic acid] | 38300 nM | 138 nM
15 | CCc1nc([C@H](Cc2ccc(NS(=O)(=O)O)cc2)NC(=O)[C@H](Cc2ccccc2)NC(=O)OC)sc1C [4-{(S)-2-(4-Ethyl-5-methylthiazol-2-yl)-2-[(S)-2-(methoxy-carbonylamino)-3-phenyl-propanamido]ethyl}phenylsulfamic acid] | 1120 nM | 0.1 nM
16 | COc1cccc(-c2csc([C@H](Cc3ccc(NS(=O)(=O)O)cc3)NC(=O)C(C)(C)C)n2)c1 [4-((S)-2-(4-(3-Methoxyphenyl)thiazol-2-yl)-2-pivalamidoethyl)phenylsulfamic acid] | 40100 nM | 110 nM
17 | COCc1csc([C@H](Cc2ccc(NS(=O)(=O)O)cc2)NC(=O)OC(C)(C)C)n1 [(S)-4-(2-(tert-Butoxycarbonylamino)-2-(4-(methoxymethyl)thiazol-2-yl)ethyl)-phenyl sulfamic acid] | 27600 nM | 180 nM
18 | COC(=O)N[C@@H](Cc1ccccc1)C(=O)N[C@@H](Cc1ccc(NS(=O)(=O)O)cc1)c1csc(C2CC2)n1 [4-{(S)-2-(2-Cyclopropylthiazol-4-yl)-2-[(S)-2-(methoxy-carbonylamino)-3-phenylpropanamido]ethyl}phenylsulfamic acid] | 1350 nM | 0.2 nM
19 | CC(C)(C)OC(=O)N[C@@H](Cc1ccc(NS(=O)(=O)O)cc1)c1nc(CO)cs1 [(S)-4-(2-(tert-Butoxycarbonylamino)-2-(4-(hydroxymethyl)thiazol-2-yl)ethyl)phenylsulfamic acid] | 31600 nM | 644 nM
20 | CCCc1csc([C@H](Cc2ccc(NS(=O)(=O)O)cc2)NC(=O)OC(C)(C)C)n1 [(S)-4-(2-(tert-Butoxycarbonylamino)-2-(4-propylthiazol-2-yl)ethyl)phenyl sulfamic acid] | 35600 nM | 40 nM
21 | (S)-4-(2-(tert-Butoxycarbonylamino)-2-(2-pivalamidothiazol-4-yl)ethyl)phenylsulfamic acid | 9120 nM | 555 nM
22 | CCOC(=O)Cc1csc([C@H](Cc2ccc(NS(=O)(=O)O)cc2)NC(=O)OC(C)(C)C)n1 | 50000 nM | 167 nM
23 | COc1ccc(-c2csc([C@H](Cc3ccc(NS(=O)(=O)O)cc3)NC(=O)C(C)(C)C)n2)c(OC)c1 [4-((S)-2-(4-(2,4-Dimethoxyphenyl)thiazol-2-yl)-2-pivalamidoethyl)phenyl-sulfamic acid] | 43100 nM | 86 nM
24 | CCc1csc([C@H](Cc2ccc(NS(=O)(=O)O)cc2)NC(=O)CNC(=O)OC(C)(C)C)n1 [(S)-4-{2-[2-(tert-Butoxycarbonylamino)acetamido]-2-(4-ethylthiazol-2-yl)ethyl}phenylsulfamic acid] | 16000 nM | 28 nM
